According to patent publication US20230077362A1 (CORTEVA AGRISCIENCE LLC, priority 2019, published 2023):
Like-named read-outs stand apart in the source and are kept apart here.

Tests used:
[1] = tested on: Beet Armyworm (Spodoptera exigua) ("BAW"), second instar larvae; test: Bioassay on beet armyworm (BAW), 128-well diet tray assay; format: in vivo; details: for pest or weed control at 50 µg/cm2: Spodoptera exigua; for BAW rating: Table ABC, species BAW, C = not tested, D = no activity noticed
In short: (§1)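 Each value represents average percent mortality from eight wells. Larvae were kept in clear-covered trays at 25° C. for five to seven days on a 14-hour light, 10-hour dark schedule before scoring.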

[2] = tested on: Cabbage Looper (Trichoplusia ni) ("CL"), second instar larvae; test: Bioassay on cabbage looper (CL), 128-well diet tray assay; format: in vivo; details: for pest or weed control at 50 µg/cm2: Trichoplusia ni; for CL rating: Table ABC, species CL, C = not tested, D = no activity noticed
In short: as §1

[3] = read-out: BAW (Biological Results, rating)
[4] = read-out: CL (Biological Results, rating)

Row | Structure (SMILES) | pest or weed control at 50 µg/cm2 [1, 3] [%] | pest or weed control at 50 µg/cm2 [2, 4] [%] | pest or weed control at 50 µg/cm2 ([1]; read-out: BAW rating) [%] | pest or weed control at 50 µg/cm2 ([2]; read-out: CL rating) [%] | further results
1 | COC(c1ccc(C)cc1N1C(=O)CS/C1=N\C(=O)Nc1ccc(-c2ncn(-c3ccc(C(F)F)cn3)n2)cc1F)C(F)(F)F (stereo not shown) [Compound J353] |  |  |  |  | BAW (Biological Results, rating) ([1]; Beet Armyworm (Spodoptera exigua), C = Not Tested): A (50-100); CL (Biological Results, rating) ([2]; Cabbage Looper (Trichoplusia ni), C = Not Tested): A (50-100)
2 | O=C(/N=C1\SCC(=O)N1c1cc(Cl)ccc1C(F)(F)F)Nc1ccc(-c2ncn(-c3ccc(OC(F)(F)F)cc3)n2)cc1Cl [Compound J42, (Z)-1-(3-(5-Chloro-2-(trifluoromethyl)phenyl)-4-oxothiazolidin-2-ylidene)-3-(2-chloro-4-(1-(4-(trifluoromethoxy)phenyl)-1H-1,2,4-triazol-3-yl)phenyl)urea] | 50 to 100 | 50 to 100 |  |  | 
3 | CC(C)c1ccc(N(C)C)cc1N1C(=O)CS/C1=N\C(=O)Nc1ccc(-c2ncn(-c3ccc(C(F)(F)F)cn3)n2)cc1Cl [Compound J296, (Z)-1-(2-Chloro-4-(1-(5-(trifluoromethyl)pyridin-2-yl)-1H-1,2,4-triazol-3-yl)phenyl)-3-(3-(5-(dimethylamino)-2-isopropylphenyl)-4-oxothiazolidin-2-ylidene)urea] | 50 to 100 | 50 to 100 |  |  | 
4 | Cc1ccc(COCC(F)(F)F)c(N2C(=O)CS/C2=N\C(=O)Nc2ccc(-c3ncn(-c4ccc([S+]([O-])C(F)(F)F)cc4)n3)cc2F)c1 (stereo not shown) [Compound J380, (Z)-1-(2-Fluoro-4-(1-(4-((trifluoromethyl)sulfinyl)phenyl)-1H-1,2,4-triazol-3-yl)phenyl)-3-(3-(5-methyl-2-((2,2,2-trifluoroethoxy)methyl)phenyl)-4-oxothiazolidin-2-ylidene)urea] |  |  | 50 to 100 | 50 to 100 | 
5 | COC(C)c1ccc(C)cc1N1C(=O)CS/C1=N\C(=O)Nc1ccc(-c2nnc(-c3ccc(OC(F)(F)F)cc3)s2)cc1F (stereo not shown) [Compound J504, (Z)-1-(2-Fluoro-4-(5-(4-(trifluoromethoxy)phenyl)-1,3,4-thiadiazol-2-yl)phenyl)-3-(3-(2-(1-methoxyethyl)-5-methylphenyl)-4-oxothiazolidin-2-ylidene)urea] |  |  | 0 to 50 | 50 to 100 | 
6 | Cc1cc(COCC(F)(F)F)c(N2C(=O)CS/C2=N\C(=O)Nc2ccc(-c3ncn(-c4ccc(S(F)(F)(F)(F)F)cc4)n3)cc2C(F)(F)F)cc1C [Compound J632, (Z)-1-(3-(4,5-Dimethyl-2-((2,2,2-trifluoroethoxy)methyl)phenyl)-4-oxothiazolidin-2-ylidene)-3-(4-(1-(4-(pentafluoro-λ^6-sulfaneyl)phenyl)-1H-1,2,4-triazol-3-yl)-2-(trifluoromethyl)phenyl)urea] |  |  | 50 to 100 | 50 to 100 | 
7 | Cc1cc(-c2cn(-c3ccc(S(F)(F)(F)(F)F)cc3)cn2)ccc1NC(=O)/N=C1\SCC(=O)N1c1cc(N(C)C)ccc1C(C)C [Compound J618, (Z)-1-(3-(5-(Dimethylamino)-2-isopropylphenyl)-4-oxothiazolidin-2-ylidene)-3-(2-methyl-4-(1-(4-(pentafluoro-λ^6-sulfaneyl)phenyl)-1H-imidazol-4-yl)phenyl)urea] |  |  | 50 to 100 | 50 to 100 | 
8 | Cc1ccc(C(C)C)c(N2C(=O)CS/C2=N\C(=O)Nc2ccc(-c3cn(-c4ccc(C(F)(F)F)cn4)cn3)cc2C)c1 [Compound J509, (Z)-1-(3-(2-Isopropyl-5-methylphenyl)-4-oxothiazolidin-2-ylidene)-3-(2-methyl-4-(1-(5-(trifluoromethyl)pyridin-2-yl)-1H-imidazol-4-yl)phenyl)urea] |  |  | 50 to 100 | 50 to 100 | 
9 | Cc1cccc(N2C(=O)CS/C2=N\C(=O)Nc2ccc(-c3ncn(-c4ccc(C(F)(F)F)cc4)n3)cc2F)c1COCC(F)(F)F [Compound J677] |  |  |  |  | BAW rating [1]: A (50-100); CL rating [2]: A (50-100)
10 | COc1cc(-c2ncn(-c3ccc(OC(F)(F)F)cc3)n2)ccc1NC(=O)/N=C1\SCC(=O)N1c1cc(N(C)C)ccc1OCCC(F)(F)F [Compound J109, (Z)-1-(3-(5-(Dimethylamino)-2-(3,3,3-trifluoropropoxy)phenyl)-4-oxothiazolidin-2-ylidene)-3-(2-methoxy-4-(1-(4-(trifluoromethoxy)phenyl)-1H-1,2,4-triazol-3-yl)phenyl)urea] | 50 to 100 | 50 to 100 |  |  | 
11 | Cc1ccc(COCC(F)(F)F)c(N2C(=O)CS/C2=N\C(=O)Nc2ccc(-c3ncn(-c4ccccc4)n3)cc2F)c1 [Compound J769, (Z)-1-(2-Fluoro-4-(1-phenyl-1H-1,2,4-triazol-3-yl)phenyl)-3-(3-(5-methyl-2-((2,2,2-trifluoroethoxy)methyl)phenyl)-4-oxothiazolidin-2-ylidene)urea] |  |  | 50 to 100 | 50 to 100 | 
12 | Cc1ccc(COCCF)c(N2C(=O)CS/C2=N\C(=O)Nc2ccc(-c3ncn(-c4ccc(OC(F)(F)F)cc4)n3)cc2F)c1 [Compound J551] |  |  |  |  | BAW rating [1]: A (50-100); CL rating [2]: A (50-100)
13 | Cc1ccc(OCCC(F)(F)F)c(N2C(=O)CS/C2=N\C(=O)Nc2ccc(-c3ncn(-c4ccc(C(F)(F)F)cn4)n3)cc2C(F)(F)F)c1 [Compound J305, (Z)-1-(3-(5-Methyl-2-(3,3,3-trifluoropropoxy)phenyl)-4-oxothiazolidin-2-ylidene)-3-(2-(trifluoromethyl)-4-(1-(5-(trifluoromethyl)pyridin-2-yl)-1H-1,2,4-triazol-3-yl)phenyl)urea] | 50 to 100 | 50 to 100 |  |  | 
14 | Cc1ccc(C(C)C)c(N2C(=O)CS/C2=N\C(=O)Nc2ccc(-c3cn(-c4ccc(C(F)(F)F)cc4)cn3)cc2C)c1 [Compound J523, (Z)-1-(3-(2-Isopropyl-5-methylphenyl)-4-oxothiazolidin-2-ylidene)-3-(2-methyl-4-(1-(4-(trifluoromethyl)phenyl)-1H-imidazol-4-yl)phenyl)urea] |  |  | 50 to 100 | 50 to 100 | 
15 | COC(C)c1ccc(C)cc1N1C(=O)CS/C1=N\C(=O)Nc1ccc(-c2ncn(-c3ccc(C(F)(F)F)cn3)n2)cc1 (stereo not shown) [Compound J338, (Z)-1-(3-(2-(1-Methoxyethyl)-5-methylphenyl)-4-oxothiazolidin-2-ylidene)-3-(4-(1-(5-(trifluoromethyl)pyridin-2-yl)-1H-1,2,4-triazol-3-yl)phenyl)urea] | 50 to 100 | 50 to 100 |  |  | 
16 | CC(C)c1ccc(N(C)C)cc1N1C(=O)CS/C1=N\C(=O)Nc1ccc(-c2ncn(-c3ccc(OC(F)(F)F)cn3)n2)cc1C(F)(F)F [Compound J275, (Z)-1-(3-(5-(Dimethylamino)-2-isopropylphenyl)-4-oxothiazolidin-2-ylidene)-3-(4-(1-(5-(trifluoromethoxy)pyridin-2-yl)-1H-1,2,4-triazol-3-yl)-2-(trifluoromethyl)phenyl)urea] | 50 to 100 | 50 to 100 |  |  | 
17 | COC(C)c1ccc(C)cc1N1C(=O)CS/C1=N\C(=O)Nc1ccc(-c2cn(-c3ccc(C(F)(F)F)cc3)cn2)cc1C (stereo not shown) [Compound J525, (Z)-1-(3-(2-(1-Methoxyethyl)-5-methylphenyl)-4-oxothiazolidin-2-ylidene)-3-(2-methyl-4-(1-(4-(trifluoromethyl)phenyl)-1H-imidazol-4-yl)phenyl)urea] |  |  | 50 to 100 | 50 to 100 | 
